Experimental data as given in article PMC7054760, “Structural and biochemical evaluation of bisubstrate inhibitors of protein arginine N-methyltransferases PRMT1 and CARM1 (PRMT4)” (Biochemical Journal, 2020).
Where a chain is given by its changes, count along the chain named. Read-outs that look alike come from different tables or passages of the source.

T1: human CARM1 (CARM1_135–479) (Homo sapiens, UniProt Q86X55)
T1 sequence (Q86X55 135-479): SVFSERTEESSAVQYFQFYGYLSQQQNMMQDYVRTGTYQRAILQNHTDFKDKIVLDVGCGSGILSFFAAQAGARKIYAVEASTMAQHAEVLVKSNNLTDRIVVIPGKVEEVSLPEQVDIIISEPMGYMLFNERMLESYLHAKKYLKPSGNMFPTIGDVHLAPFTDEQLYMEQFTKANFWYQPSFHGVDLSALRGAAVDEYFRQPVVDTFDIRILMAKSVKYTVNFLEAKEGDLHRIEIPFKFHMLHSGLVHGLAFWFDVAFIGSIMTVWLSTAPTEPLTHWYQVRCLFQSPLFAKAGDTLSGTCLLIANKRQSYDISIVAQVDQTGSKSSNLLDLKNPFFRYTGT

T2: CARM1_135–479 (Homo sapiens, UniProt Q86X55)
T2 construct: human CARM1, residues 135 to 479; MBP (N, cleaved yes); linker and TEV site […]; (N, cleaved yes); made in house; host or cells: E. coli BL21-CodonPlus (DE3)-RIL
T2 sequence (Q86X55 135-479): T1 sequence (Q86X55 135-479)

T3: CARM1 N161E (Homo sapiens, UniProt Q86X55, N161E)
T3 sequence (Q86X55 135-479 N161E): T1 sequence (Q86X55 135-479) with N27E

T4: CARM1 N265Y (Homo sapiens, UniProt Q86X55, N265Y)
T4 sequence (Q86X55 135-479 N265Y): T1 sequence (Q86X55 135-479) with N131Y

B1: catalytic domain of human CARM1, residues 135 to 479 (domain or fragment, UniProt Q86X55 135-479, looked up)
chain: T1 sequence (Q86X55 135-479)
notes: MBP and the linker removed with TEV protease; also called CARM1_(135–479); CARM1 catalytic domain; not shown: MBP, N-terminal, cleaved

Assays:
CARM1 = conditions: cited from earlier work
[1] = system: multiple myeloma xenograft model; design: method as in PMID 29269946; conditions: cited from earlier work
PRMT1_22–361 = PRMT1_22–361 (Homo sapiens, UniProt Q99873); experiment: Radiometric methylation assay, PRMT1 with H4(1–21) and [methyl-3H]-SAM; format: biochemical; conditions: 160 nM PRMT1, 40 µM H4(1–21), 0.23 µM [3H]-SAM, 30°C, 60 min; read-out: IC50 (95% confidence interval), PRMT1
Chain of PRMT1_22–361 (Q99873 32-371): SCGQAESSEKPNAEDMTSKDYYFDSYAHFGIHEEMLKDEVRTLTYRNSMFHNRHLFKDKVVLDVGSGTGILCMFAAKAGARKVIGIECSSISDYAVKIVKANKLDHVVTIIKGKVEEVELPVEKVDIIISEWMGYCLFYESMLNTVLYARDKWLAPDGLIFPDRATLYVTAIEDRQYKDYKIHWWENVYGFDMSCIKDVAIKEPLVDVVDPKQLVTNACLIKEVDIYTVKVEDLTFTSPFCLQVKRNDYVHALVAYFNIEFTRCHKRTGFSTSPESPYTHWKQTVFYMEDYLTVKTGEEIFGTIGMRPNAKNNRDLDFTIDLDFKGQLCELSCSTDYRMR

[2] = target: T1, human CARM1 (CARM1_135–479); experiment: Isothermal titration calorimetry (ITC) with CARM1 catalytic domain; format: binding; conditions: for -T∆S, CARM1: calculated indirectly; for ∆G, CARM1: calculated indirectly from best-fit Kd and ∆H; for Binding more strongly to CARM1 over PRMT1 (as judged by ITC): ratio of Kd values PRMT1/CARM1
[3] = target: human PRMT1 (PRMT1_22–361) (Homo sapiens, UniProt Q99873); experiment: Isothermal titration calorimetry (ITC) with PRMT1; format: binding; conditions: for -T∆S, PRMT1: calculated indirectly
Chain of human PRMT1 (PRMT1_22–361) (Q99873 32-371): as above

CARM1_135–479 = target: T2, CARM1_135–479; experiment: Radiometric methylation assay, CARM1 with H3(3–31) and [methyl-3H]-SAM; format: biochemical; conditions: 0.23 µM [3H]-SAM
CARM1 N161E = target: T3, CARM1 N161E; experiment: ITC with CARM1 N161E mutant; conditions: for N ± standard error, CARM1 N161E / ∆H ± standard error, CARM1 N161E / -T∆S, CARM1 N161E / ∆G, CARM1 N161E: ITC; for -T∆S, CARM1 N161E / ∆G, CARM1 N161E: calculated indirectly
CARM1 N265Y = target: T4, CARM1 N265Y; experiment: ITC with CARM1 N265Y mutant; conditions: for N ± standard error, CARM1 N265Y / ∆H ± standard error, CARM1 N265Y / -T∆S, CARM1 N265Y / ∆G, CARM1 N265Y: ITC; for -T∆S, CARM1 N265Y / ∆G, CARM1 N265Y: calculated indirectly
other methyltransferases = system: other methyltransferases; design: method as in PMID 29719619; conditions: cited from earlier work
[4] = target: the molecule itself; experiment: crystal structure; CARM1(135-479) co-crystallised with small-molecule inhibitors 4, 5, 6 and 7; sitting-drop vapour diffusion, 20°C; space group P2(1)2(1)2
[5] = ITC, 25°C, read-out: Kd ± standard error, CARM1
[6] = 320 nM CARM1, 120 µM H3(3–31), read-out: IC50 (95% confidence interval), CARM1
[7] = ITC, Table 2, wild-type, read-out: Kd ± standard error from curve fitting, CARM1 WT

| Molecule | N (stoichiometry) ± standard error from curve fitting, CARM1 ([2]; ITC) | ∆H ± standard error from curve fitting, CARM1 ([2]; ITC) [kcal/mol] | Kd [2, 5] [nM] | -T∆S, CARM1 ([2]; ITC) [kcal/mol] | ∆G, CARM1 ([2]; ITC) [kcal/mol] | IC50 (CARM1_135–479; [6]) [nM] | Kd [2, 7] [nM] | Kd (CARM1 N161E) [nM] | Kd (CARM1 N265Y) [nM] | N ± standard error, CARM1 N265Y (CARM1 N265Y) | ∆H ± standard error, CARM1 N265Y (CARM1 N265Y) [kcal/mol] | -T∆S, CARM1 N265Y (CARM1 N265Y) [kcal/mol] | ∆G, CARM1 N265Y (CARM1 N265Y) [kcal/mol] | N ± standard error, CARM1 N161E (CARM1 N161E) | ∆H ± standard error, CARM1 N161E (CARM1 N161E) [kcal/mol] | -T∆S, CARM1 N161E (CARM1 N161E) [kcal/mol] | ∆G, CARM1 N161E (CARM1 N161E) [kcal/mol] | further results |
| --- | --- | --- | --- | --- | --- | --- | --- | --- | --- | --- | --- | --- | --- | --- | --- | --- | --- | --- |
| CNC[C@@H](O)COc1ccc(Cl)c(-c2nc(-c3c(C)noc3C)c(C)c(N3CC4(CCN(C(=O)OC)CC4)C3)n2)c1 [EPZ022302/EZM2302] |  |  |  |  |  |  |  |  |  |  |  |  |  |  |  |  |  | IC50 (CARM1; read-out: CARM1 inhibitor potency): […]; Anti-tumour activity in vivo [1]: anti-tumour activity in vivo |
| N=C(N)NCCCN(CCCN)C[C@H]1O[C@@H](n2cnc3c(N)ncnc32)[C@H](O)[C@@H]1O [Inhibitor 4] | 0.481 ± 0.0062 | -24.6 ± 0.633 | 3320 ± 335 | 17.2 | -7.48 | 2300 |  |  |  |  |  |  |  |  |  |  |  | IC50 (PRMT1_22–361): 7200 nM; N (stoichiometry) ± standard error from curve fitting, PRMT1 [3]: 0.519 ± 0.0082; ∆H ± standard error from curve fitting, PRMT1 ([3]; 10: competition experiment): -16 ± 0.77 kcal/mol; Kd ([3]; 25°C, direct titration, 7: stoichiometry fixed to 0.5, read-out: Kd ± standard error, PRMT1): 10200 ± 996 nM; ∆G, PRMT1 ([3]; calculated indirectly from best-fit Kd and ∆H, 10: competition experiment): -6.81 kcal/mol; -T∆S, PRMT1 ([3]; 10: competition experiment): 9.2 kcal/mol |
| N=C(N)NCCCCCN(CC[C@H](N)C(=O)O)C[C@H]1O[C@@H](n2cnc3c(N)ncnc32)[C@H](O)[C@@H]1O [Inhibitor 7] | 0.648 ± 0.032 | -18.6 ± 2.31 | 38100 ± 9610 | 12.5 | -6.02 | 24100 | 38100 ± 9610 | 8180 ± 482 |  |  |  |  |  |  |  |  |  |  |
| NCCCN(CCCNc1ncccn1)C[C@H]1O[C@@H](n2cnc3c(N)ncnc32)[C@H](O)[C@@H]1O [Inhibitor 8] | 0.529 ± 0.0042 | -29.6 ± 0.445 | 2300 ± 162 | 22 | -7.7 | 700 | 2300 ± 162 | 1110 ± 201 | 5180 ± 1860 | 0.698 ± 0.051 | -15 ± 2.01 | 7.82 | -7.22 | 0.745 ± 0.012 | -27 ± 0.906 | 18.9 | -8.13 |  |
| NCCCN(CCCNc1ccccn1)C[C@H]1O[C@@H](n2cnc3c(N)ncnc32)[C@H](O)[C@@H]1O [Inhibitor 9] | 0.529 ± 0.025 | -20.6 ± 1.77 | 1140 ± 411 | 12.5 | -8.13 | 300 | 1140 ± 411 | 354 ± 34 | 3260 ± 458 | 1.07 ± 0.035 | -14.8 ± 0.803 | 7.31 | -7.48 | 0.914 ± 0.005 | -20.7 ± 0.28 | 11.9 | -8.8 | Binding more strongly to CARM1 over PRMT1 (as judged by ITC) [2]: ~15 fold |
| Nc1ncnc2c1ncn2[C@@H]1O[C@H](CN(CCCNc2ccccn2)CC[C@H](N)C(=O)O)[C@@H](O)[C@H]1O [Inhibitor 10] | 0.536 ± 0.0079 | -17.5 ± 0.459 |  | 9.35 | -8.13 |  |  | 181 ± 17 | 143000 ± 75900 |  |  |  |  | 1.02 ± 0.004 | -22.5 ± 0.232 | 13.3 | -9.2 | Kd ([2]; Kd ± standard error from curve fitting, CARM1 WT, ITC, Table 2, wild-type): 1110 ± 132 nM; Kd ([2]; Kd ± standard error, CARM1, ITC, 25°C): 1110 ± 132 nM; Binding more strongly to CARM1 over PRMT1 (as judged by ITC) [2]: ~40 fold; IC50 (CARM1_135–479; IC50 (95% confidence interval), CARM1, 320 nM CARM1, 120 µM H3(3–31)): 800 nM |
| Nc1ncnc2c1ncn2[C@@H]1O[C@H](CSCC[C@H](N)C(=O)O)[C@@H](O)[C@H]1O [SAH, S-Adenosylhomocysteine, reference compound] | 0.549 ± 0.0086 | -35.1 ± 1.1 |  | 27 |  |  |  |  |  | 0.737 ± 0.004 | -23.7 ± 0.251 | 15.8 | -7.96 | 0.692 ± 0.0047 | -29.9 ± 0.44 | 20.6 | -9.39 | N (stoichiometry) ± standard error from curve fitting, PRMT1 [3]: 0.485 ± 0.0037; ∆H ± standard error from curve fitting, PRMT1 ([3]; 10: competition experiment): -23.4 ± 0.335 kcal/mol; -T∆S, PRMT1 ([3]; 10: competition experiment): 15 kcal/mol |
| B1 |  |  |  |  |  |  |  |  |  |  |  |  |  |  |  |  |  | binding result [4]: binds |
